Laboratory results reported in patent US20140323349A1, “COMPOSITIONS AND METHODS FOR MONITORING AND DETECTING CANCEROUS CONDITIONS” (PHIGENIX, INC., priority 2011, published 2014).
“Also recorded” adds a separate entry of the source.

Experiments:
Type in all cases: cell-based, human
PAX2 protein = assay: Western blot analysis of PAX2 protein; conditions: DU145; 5 uM Los, 25 uM U0126, 20 uM PD98059, 250 μM AICAR
Protocol: Briefly, cells were harvested by trypsinization and washed twice with PBS. Lysis buffer was prepared according to the manufacturer's instructions (Sigma), and was then added to the cells. Following a 15 minute incubation period at 4° C. on an orbital shaker, cell lysate were then collected and centrifuged for 10 minutes at 12000×g to pellet cellular debris. The protein-containing supernatant were then collected and quantitated. Next, 25 μg protein extract was loaded onto an 8-16% gradient SDS-PAGE (Novex). Following electrophoresis, proteins were transferred to PVDF membranes, and then blocked with 5% nonfat dry milk in TTBS (0.05% Tween 20 and 100 mM Tris-C1) for 1 hour. Blots were then probed with rabbit anti-PAX2 primary antibody (Zymed, San Francisco, Calif.) at a 1:2000 dilution. After washing, the membranes were incubated with anti-rabbit antibody conjugated to horseradish peroxidase (HRP) (dilution 1:5000; Sigma), and signal detection was visualized using chemilluminescence reagents (Pierce) on an Alpha Innotech Fluorchem 8900. As a control, blots were stripped and reprobed with mouse anti-β-actin primary antibody (1:5000; Sigma-Aldrich) and HRP-conjugated anti-mouse secondary antibody (1:5000; Sigma-Aldrich) and signal detection was again visualized.
Western blot analysis was performed as described in Example 2. Blots were then probed with primary antibody (anti-PAX2, -phospho-PAX2, -JNK, -phospho-JNK, -ERK1/2, or -phospho-ERK1/2) (Zymed, San Francisco, Calif.) at 1:1000-2000 dilutions. After washing, the membranes were incubated with anti-rabbit antibody conjugated to horseradish peroxidase (HRP) (dilution 1:5000; Sigma), and signal detection was visualized using chemilluminescence reagents (Pierce) on an Alpha Innotech Fluorchem 8900. As a control, blots were stripped and re-probed with mouse anti-β-actin primary antibody (1:5000; Sigma-Aldrich) and HRP-conjugated anti-mouse secondary antibody (1:5000; Sigma-Aldrich), and signal detection was again visualized.

phospho-PAX2 = assay: Western blot of phospho-PAX2; conditions: DU145
Protocol: (§1) Western blot analysis was performed as described in Example 2. […] After washing, the membranes were incubated with anti-rabbit antibody conjugated to horseradish peroxidase (HRP) (dilution 1:5000; Sigma), and signal detection was visualized using chemilluminescence reagents (Pierce) on an Alpha Innotech Fluorchem 8900. As a control, blots were stripped and re-probed with mouse anti-β-actin primary antibody (1:5000; Sigma-Aldrich) and HRP-conjugated anti-mouse secondary antibody (1:5000; Sigma-Aldrich), and signal detection was again visualized.

phospho-STAT3 = assay: Western blot of phospho-STAT3; conditions: DU145
Protocol: as §1

phospho-JNK = assay: Western blot of phospho-JNK; conditions: DU145
Protocol: as §1

phospho-ERK 1/2 = assay: Western blot of phospho-ERK 1/2; conditions: DU145
Protocol: as §1

ERK = assay: Western blot of ERK; conditions: DU145
Protocol: as §1

PAX2 = PAX2 expression after treatment with AngII or receptor blockers; conditions: for reduction of PAX2 expression: versus untreated control
Protocol: Western blot analysis was performed as described in Example 2. […] After washing, the membranes were incubated with anti-rabbit antibody conjugated to horseradish peroxidase (HRP) (dilution 1:5000; Sigma), and signal detection was visualized using chemilluminescence reagents (Pierce) on an Alpha Innotech Fluorchem 8900. As a control, blots were stripped and re-probed with mouse anti-β-actin primary antibody (1:5000; Sigma-Aldrich) and HRP-conjugated anti-mouse secondary antibody (1:5000; Sigma-Aldrich), and signal detection was again visualized. Quantitative real-time RT-PCR was performed as described in Example 1 to verify changes in gene expression following PAX2 knockdown in PC3 and DU145 prostate cancer cell lines and the hPrEC normal prostate epithelial cells. Forty cycles of PCR were performed under standard conditions using an annealing temperature of 60° C. Quantification was determined by the cycle number where exponential amplification began (threshold value) and averaged from the values obtained from the triplicate repeats. There was an inverse relationship between message level and threshold value. In addition, GAPDH was used as a housekeeping gene to normalize the initial content of total cDNA. Relative expression was calculated as the ratio between each genes and GAPDH. All reactions were carried out in triplicate.

DU145 cells = assay: [3H]thymidine incorporation proliferation assay
Protocol: Proliferation of cells was determined by [^3H] thymidine ribotide ([3H]TdR) incorporation into DNA. 0.5×10^6 cells/well of suspension DU145 cells were plated in their appropriate media. Cells were incubated for 72 h with or without the presence of AngII at the indicated concentrations. Cells were exposed to 37 kBq/ml [methyl-3H]thymidine in the same medium for 6 h. The adherent cells were fixed by 5% trichloroacetic acid and lysed in SDS/NaOH lysis buffer overnight. Radioactivity was measured by Beckman LS3801 liquid scintillation counter (Canada). Suspension cell cultures were harvested by cell harvester (Packard Instrument Co., Meriden, Conn.), and radioactivity was measured by 1450 microβ liquid scintillation counter (PerkinElmer Life Sciences).

DEFB1 = assay: QRT-PCR of DEFB1 (hBD-1) expression; conditions: 10 μM
Protocol: Briefly, total RNA was isolated using the SV Total RNA Isolation System (Promega, Madison, Wis.) from approximately 1×10^6 cells harvested by trypsinizing. Cells were lysed and total RNA was isolated by centrifugation through spin columns. For cells collected by LCM, total RNA was isolated using the PicoPure RNA Isolation Kit (Arcturus Biosciences, Mt. View, Calif.) following the manufacturer's protocol. Total RNA (0.5 μg per reaction) from both sources was reverse transcribed into cDNA utilizing random primers (Promega). AMV Reverse Transcriptase II enzyme (500 units per reaction; Promega) was used for first strand synthesis and Tfl DNA Polymerase for second strand synthesis (500 units per reaction; Promega) as per the manufacturer's protocol. In each case, 50 pg of cDNA was used per ensuing PCR reaction. Two-step QRT-PCR was performed on cDNA generated using the MultiScribe Reverse Transcripatase from the TaqMan Reverse Transcription System and the SYBR® Green PCR Master Mix (Applied Biosystems).
Forty cycles of PCR were performed under standard conditions using an annealing temperature of 56° C. In addition, β-actin (Table 2) was amplified as a housekeeping gene to normalize the initial content of total cDNA. […]
Quantitative real-time RT-PCR was performed as described in Example 1 to verify changes in gene expression following PAX2 knockdown in PC3 and DU145 prostate cancer cell lines and the hPrEC normal prostate epithelial cells. […] Quantification was determined by the cycle number where exponential amplification began (threshold value) and averaged from the values obtained from the triplicate repeats. […] Relative expression was calculated as the ratio between each genes and GAPDH. […]
QRT-PCR was performed as previously described (Gibson et al., 2007). […] Gene expression in benign prostate tissue samples was calculated as the expression ratio compared to β-actin. Levels of hBD-1 expression in malignant prostate tissue, hPREC prostate primary culture, and prostate cancer cell lines before and after induction were calculated relative to the average level of hBD-1 expression in hPrEC cells. […]

NC(=O)c1ncn([C@@H]2O[C@H](CO)[C@@H](O)[C@H]2O)c1N [AICAR, 5-Aminoimidazole-4-carboxamide-1-β-4-ribofuranoside]
PAX2 expression / protein levels (PAX2 protein): suppression of PAX2 pression expression; also recorded: suppress PAX2 protein levels | phospho-PAX2 protein levels (phospho-PAX2): suppression; also recorded: suppress phospho-PAX2 protein expression levels | phospho-STAT3 protein levels (phospho-STAT3): suppressed; also recorded: suppress phospho-STAT3 protein levels

N#CC(=C(/N)Sc1ccccc1N)/C(C#N)=C(\N)Sc1ccccc1N [Drug U0126, U0126]
PAX2 expression / protein levels (PAX2 protein): significant reduction of PAX2 expression; also recorded: suppress PAX2 protein levels | phospho-PAX2 protein levels (phospho-PAX2): significant decrease or suppression of phospho-PAX2 protein levels; also recorded: suppress phospho-PAX2 protein expression levels | phospho-JNK protein levels (phospho-JNK): did not decrease phospho-JNK protein levels; also recorded: failed to decrease phospho-JNK protein levels | phospho-STAT3 protein levels (phospho-STAT3): reduced phospho-STAT3 protein levels; also recorded: suppress phospho-STAT3 protein levels

CCCCc1nc(Cl)c(CO)n1Cc1ccc(-c2ccccc2-c2nn[nH]n2)cc1 [Los, Losartan]
phospho-ERK (phospho-ERK 1/2): reduced the amount of phospho-ERK; also recorded: suppresses phospho-ERK 1/2 and PAX2 protein levels | PAX2 expression / protein levels (PAX2 protein): significant reduction of PAX2 expression; also recorded: suppress PAX2 protein levels | phospho-PAX2 protein levels (phospho-PAX2): significant decrease or suppression of phospho-PAX2 protein levels; also recorded: suppress phospho-PAX2 protein expression levels | ERK protein levels (ERK): no effect on ERK protein levels | phospho-JNK protein levels (phospho-JNK): did not decrease phospho-JNK protein levels; also recorded: failed to decrease phospho-JNK protein levels | phospho-STAT3 protein levels (phospho-STAT3): reduced phospho-STAT3 protein levels; also recorded: suppress phospho-STAT3 protein levels | effect on AngII effect on PAX2 expression (PAX2; DU145): blocks the effect of Angiotensin II (AngII) effect on PAX2 expression | reduction of PAX2 expression (PAX2; DU145, 48 hours): 37% | reduction of PAX2 expression (PAX2; DU145, 72 hours): 50% | decrease in proliferation rate (DU145 cells; DU145): 50% | effect on AngII-induced proliferation (DU145 cells; DU145, pre-treating for 30 min): suppressed the effect of AngII on proliferation

COc1cccc(-c2cc(=O)c3ccccc3o2)c1N [PD98059]
PAX2 expression / protein levels (PAX2 protein): decreased PAX2; also recorded: suppress PAX2 protein levels | phospho-PAX2 protein levels (phospho-PAX2): significant decrease or suppression of phospho-PAX2 protein levels; also recorded: suppress phospho-PAX2 protein expression levels | phospho-STAT3 protein levels (phospho-STAT3): reduced phospho-STAT3 protein levels; also recorded: suppress phospho-STAT3 protein levels

Cc1cc(Cn2cnc3c2C[C@@H](C(=O)O)N(C(=O)C(c2ccccc2)c2ccccc2)C3)ccc1N(C)C [PD123319]
increase in PAX2 expression (PAX2; DU145, 48 hours): 7 fold | increase in PAX2 expression (PAX2; DU145, 96 hours): 8 fold

Angiotensin II (DRVYIHPF) [AngII]
decrease in DEFB1 expression relative to untreated hPrEC cells (DEFB1; 72 hours): 35% | decrease in DEFB1 expression relative to untreated hPrEC cells (DEFB1; 96 hours): 50% | increase in DEFB1 relative to untreated hPrEC cells (DEFB1; 96 hours): 79% | PAX2 expression (PAX2; DU145, 30 min to 48 hour AngII treatment): progressively increased over time | increase in PAX2 expression relative to untreated hPrEC cells (PAX2; hPrEC, 10 μM, 72 hours): 66% | PAX2 expression in hPrEC as % of PAX2 levels in PC3 cells (PAX2; hPrEC, 72 hours): 77% | PAX2 expression in hPrEC as % of PAX2 expression in PC3 cells (PAX2; hPrEC, 96 hours): 89% | proliferation rate (DU145 cells; DU145, AngII treatment): two- to three-fold increase; also recorded: increases DU145 cell proliferation
